Values after ≈ are worked out from the molar mass of the structure shown. Read-outs that look alike come from different tables or passages of the source.
Legend:
Assay type in all cases: cell-based
[1] = system: Streptococcus pyogenes 1079; test: MIC, microtiter broth dilution (NCCLS M100-S14), S. pyogenes 1079 (ermB)
Procedure, shortened: (§1)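 Where available, resistant strains were tested alongside the susceptible parent they derive from. The MIC, determined by tray-based broth dilution and NCCLS M100-S14 interpretation, served as the comparison value.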

[2] = system: Haemophilus influenzae 1218; test: MIC, microtiter broth dilution (NCCLS M100-S14), H. influenzae 1218 (susceptible)
Procedure, shortened: as §1

[3] = system: Streptococcus pneumoniae 1175; conditions: microtiter broth dilution
Procedure, shortened: as §1

[4] = system: Streptococcus pneumoniae 1095; conditions: microtiter broth dilution
Procedure, shortened: as §1

[5] = system: Streptococcus pneumoniae 1016; test: MIC, microtiter broth dilution (NCCLS M100-S14), S. pneumoniae 1016 (susceptible)
Procedure, shortened: as §1

[6] = H. influenzae 1218 (susceptible)
[7] = S. pneumoniae 1016 (susceptible)

| Compound | MIC S. pyogenes 1079 ([1]; Streptococcus pyogenes 1079) [µg/mL] | MIC H. influenzae 1218 ([2]; Haemophilus influenzae 1218) [µg/mL] | MIC S. pneumo. 1175 ([3]; Streptococcus pneumoniae 1175) [µg/mL] | MIC S. pneumo. 1095 ([4]; Streptococcus pneumoniae 1095) [µg/mL] | MIC S. pneumo. 1016 ([5]; Streptococcus pneumoniae 1016) [µg/mL] | MIC S. pyogenes 1079 ([1]; S. pyogenes 1079 (ermB)) [µg/mL] | MIC H. influenzae 1218 [2, 6] [µg/mL] | MIC S. pneumo. 1175 ([3]; S. pneumoniae 1175 (mefA)) [µg/mL] | MIC S. pneumo. 1095 ([4]; S. pneumoniae 1095 (ermB)) [µg/mL] | MIC S. pneumo. 1016 [5, 7] [µg/mL] |
| --- | --- | --- | --- | --- | --- | --- | --- | --- | --- | --- |
| CCC1OC(=O)C(C)C(=O)C(C)C(OC2OC(C)CC(N(C)C)C2O)C(C)(OC)CC(C)C(=O)C(C)C2N(C3CN(Cc4c(C)cnc5ncccc45)C3)C(=O)OC12C (stereo not drawn) [Example 1.99, 3-descladinosyl-11,12-dideoxy-6-O-methyl-3-oxo-12,11-(oxycarbonyl-(1-(3-methyl-1,8-naphthyridine-4-methyl)-azetidin-3-yl)-imino)-erythromycin A] | 0.5 (≈ 0.607 µM) | 1 (≈ 1.21 µM) | <0.063 | <0.063 | <0.063 | – | – | – | – | – |
| CCC1OC(=O)C(C)C(=O)C(C)C(OC2OC(C)CC(N(C)C)C2O)C(C)(OC)CC(C)C(=O)C(C)C2N(CC3CCCN3C(=O)c3nc4ccncc4[nH]3)C(=O)OC12C (stereo not drawn) [10.24] | – | – | – | – | – | >64.00 | 2 (≈ 2.38 µM) | 1 (≈ 1.19 µM) | <0.06 | <0.06 |
| CCC1OC(=O)C(C)C(=O)C(C)C(OC2OC(C)CC(N(C)C)C2O)C(C)(OC)CC(C)C(=O)C(C)C2N(C3CN(S(=O)(=O)c4cccc5cccnc45)C3)C(=O)OC12C (stereo not drawn) [Example 3.03, 3-descladinosyl-11,12-dideoxy-O-methyl-3-oxo-12,11-(oxycarbonyl-(1-(quinoline-8-sulfonyl)-azetidin-3-yl)-imino)-erythromycin A] | 1 (≈ 1.16 µM) | 0.12 (≈ 0.14 µM) | <0.06 | <0.06 | <0.06 | – | – | – | – | – |
| CC[C@H]1OC(=O)[C@H](C)C(=O)[C@H](C)[C@@H](O[C@@H]2O[C@H](C)C[C@H](N(C)C)[C@H]2O)[C@](C)(OC)C[C@@H](C)C(=O)[C@H](C)[C@H]2N(CC3(O)CN(C(=O)c4nc5ccccc5[nH]4)C3)C(=O)O[C@]12C.O=CO [7.28] | – | – | – | – | – | >64.00 | 2 | 0.25 | <0.06 | <0.06 |
| CCC1OC(=O)C(C)C(=O)C(C)C(OC2OC(C)CC(N(C)C)C2O)C(C)(OC)CC(C)C(=O)C(C)C2N(CC3CCCN3C(=O)c3cccc4cccnc34)C(=O)OC12C (stereo not drawn) [12.10] | – | – | – | – | – | >64.00 | 8 (≈ 9.4 µM) | 2 (≈ 2.35 µM) | 0.5 (≈ 0.588 µM) | <0.06 |
| CCC1OC(=O)C(C)C(=O)C(C)C(OC2OC(C)CC(N(C)C)C2O)C(C)(OC)CC(C)C(=O)C(C)C2N(C3CN(Cc4cccc5cccnc45)C3)C(=O)OC12C (stereo not drawn) [Example 1.05, (quinolin-8-yl)methyl] | 64 (≈ 79.1 µM) | 0.25 (≈ 0.309 µM) | 0.12 (≈ 0.148 µM) | <0.06 | <0.06 | – | – | – | – | – |
| CC[C@H]1OC(=O)[C@H](C)C(=O)[C@H](C)[C@@H](O[C@@H]2O[C@H](C)C[C@H](N(C)C)[C@H]2O)[C@](C)(OC)C[C@@H](C)C(=O)[C@H](C)[C@H]2N(CC3(O)CN(C(=O)c4ccc(-n5cccn5)nc4)C3)C(=O)O[C@]12C.O=CO [7.31] | – | – | – | – | – | >64.00 | 8 | 0.12 | 4 | <0.06 |
| CCC1OC(=O)C(C)C(=O)C(C)C(OC2OC(C)CC(N(C)C)C2O)C(C)(OC)CC(C)C(=O)C(C)C2N(C3CCN(Cc4cncc5ccccc45)C3)C(=O)OC12C (stereo not drawn) [Example 9.10, (isoquinolin-4-yl)methyl] | – | – | – | – | – | 64 (≈ 77.8 µM) | 0.5 (≈ 0.608 µM) | 0.25 (≈ 0.304 µM) | 8 (≈ 9.72 µM) | <0.06 |
| CCc1nn(C)c2ccc(S(=O)(=O)N3CC(N4C(=O)OC5(C)C(CC)OC(=O)C(C)C(=O)C(C)C(OC6OC(C)CC(N(C)C)C6O)C(C)(OC)CC(C)C(=O)C(C)C45)C3)cc12 (stereo not drawn) [Example 3.117, 3-descladinosyl-11,12-dideoxy-6-O-methyl-3-oxo-12,11-(oxycarbonyl-(1-(3-ethyl-1-methyl-1H-indazole-5-sulfonyl)-azetidin-3-yl)-imino)-erythromycin A] | 1 (≈ 1.12 µM) | 1 (≈ 1.12 µM) | <0.063 | <0.063 | <0.063 | – | – | – | – | – |
| CCC1OC(=O)C(C)C(=O)C(C)C(OC2OC(C)CC(N(C)C)C2O)C(C)(OC)CC(C)C(=O)C(C)C2N(CC3CN(C(=O)c4cncc5ccccc45)C3)C(=O)OC12C.O=CO (stereo not drawn) [4.47] | >64.00 | 0.75 | 0.12 | 0.19 | <0.06 | – | – | – | – | – |
| CCC1OC(=O)C(C)C(=O)C(C)C(OC2OC(C)CC(N(C)C)C2O)C(C)(OC)CC(C)C(=O)C(C)C2N(CC3CN(Cc4cccc(C#N)c4)C3)C(=O)OC12C (stereo not drawn) [4.08] | >64.00 | 0.12 (≈ 0.151 µM) | <0.06 | 32 (≈ 40.2 µM) | <0.06 | – | – | – | – | – |
| CCC1OC(=O)C(C)C(=O)C(C)C(OC2OC(C)CC(N(C)C)C2O)C(C)(OC)CC(C)C(=O)C(C)C2N(CC3CCN(Cc4ccc5ccccc5n4)C3)C(=O)OC12C (stereo not drawn) [11.04] | – | – | – | – | – | 64 (≈ 76.5 µM) | 1 (≈ 1.19 µM) | 0.12 (≈ 0.143 µM) | <0.06 | <0.06 |
| CCC1OC(=O)C(C)C(=O)C(C)C(OC2OC(C)CC(N(C)C)C2O)C(C)(OC)CC(C)C(=O)C(C)C2N(C3CN(S(=O)(=O)c4cccc(-c5ncon5)c4)C3)C(=O)OC12C (stereo not drawn) [Example 3.41, 3-descladinosyl-11,12-dideoxy-6-O-methyl-3-oxo-12,11-(oxycarbonyl-(1-(3-(1,2,4-oxadiazol-3-yl)benzenesulfonyl)-azetidin-3-yl)-imino)-erythromycin A] | 8 (≈ 9.13 µM) | 0.25 (≈ 0.285 µM) | <0.06 | <0.06 | <0.06 | – | – | – | – | – |
| CCCC(c1ccnc2ccccc12)N1CC(N2C(=O)OC3(C)C(CC)OC(=O)C(C)C(=O)C(C)C(OC4OC(C)CC(N(C)C)C4O)C(C)(OC)CC(C)C(=O)C(C)C23)C1 (stereo not drawn) [Example 1.64, 3-descladinosyl-11,12-dideoxy-6-O-methyl-3-oxo-12,11-(oxycarbonyl-(1-(1-(quinolin4-yl)-butyl)-azetidin-3-yl)-imino)-erythromycin A] | 1 (≈ 1.17 µM) | 1 (≈ 1.17 µM) | <0.06 | <0.06 | <0.06 | – | – | – | – | – |
| CCC1OC(=O)C(C)C(=O)C(C)C(OC2OC(C)CC(N(C)C)C2O)C(C)(OC)CC(C)C(=O)C(C)C2N(C3CN(S(=O)(=O)c4cccc(-c5csnn5)c4)C3)C(=O)OC12C (stereo not drawn) [Example 3.63, 3-descladinosy-11,12-dideoxy-6-O-methyl-3-oxo-12,11-(oxycarbonyl-(1-(3-(1,2,3-thiadiazol-4-yl)benzenesulfonyl)-azetidin-3-yl)-imino)-erythromycin A] | 0.25 (≈ 0.28 µM) | <0.06 | <0.06 | <0.06 | <0.06 | – | – | – | – | – |
| CCC1OC(=O)C(C)C(=O)C(C)C(OC2OC(C)CC(N(C)C)C2O)C(C)(OC)CC(C)C(=O)C(C)C2N(CC3CN(Cc4cnc5ccccc5c4)C3)C(=O)OC12C (stereo not drawn) [4.10] | 16 (≈ 19.4 µM) | <0.06 | <0.06 | 1 (≈ 1.22 µM) | <0.06 | – | – | – | – | – |
| CCC1OC(=O)C(C)C(=O)C(C)C(OC2OC(C)CC(N(C)C)C2O)C(C)(OC)CC(C)C(=O)C(C)C2N(CC3CCCN3C(=O)c3cccc4nccnc34)C(=O)OC12C (stereo not drawn) [10.33] | – | – | – | – | – | >64.00 | 2 (≈ 2.35 µM) | 0.25 (≈ 0.293 µM) | <0.06 | <0.06 |
| CCC1OC(=O)C(C)C(=O)C(C)C(OC2OC(C)CC(N(C)C)C2O)C(C)(OC)CC(C)C(=O)C(C)C2N(CC3CCCN3C(=O)c3ccc4ncccc4c3)C(=O)OC12C (stereo not drawn) [12.06] | – | – | – | – | – | >64.00 | 2 (≈ 2.35 µM) | 1 (≈ 1.18 µM) | 0.25 (≈ 0.294 µM) | <0.06 |
